These are literature values, as cited in patent US20070183984A1, “CALCIUM PHOSPHATE SALTS IN ORAL COMPOSITIONS SUITABLE AS A TOOTH REMINERALIZING AGENT” (WM. WRIGLEY JR. COMPANY, priority 2006, published 2007).

The conditions of the first data set: g in about 100 ml of water at about 20° C.
`O=C(O)CC(O)C(=O)O` (stereo not drawn) [malic acid]: the solubility in water result was “about 55%”.

For polyglutamic acid, the solubility in water result is recorded as “about 5%”.

As for `O=C(O)/C=C/C(=O)O` [fumaric acid], the solubility in water entry is on record as “about 0.6%”.

On to polyaspartic acid, for which the solubility in water result is “about 5%”.

The conditions of a further data set: octanol/water partition coefficient.
On to `O=C(O)CC(O)C(=O)O` (stereo not drawn) [malic acid], for which the “Log Pow” value is −1.26.

Take `O=C(O)CCCCC(=O)O` [adipic acid]: the “Log Pow” value is recorded as 0.08.
